Values of other authors as cited in patent US20220160649A1, “PHARMACEUTICAL COMPOSITION” (priority 2019, published 2022).

Conditions: stated as well known

solubility in water: almost insoluble
SMILES: Oc1ccc(/C=C/c2cc(O)cc(O)c2)cc1 [resveratrol (IIIA), resveratrol]
